The source of these data is patent US20260306500A1, “METHOD OF INHIBITING ADENOSINE TRIPHOSPHATE SECRETION, METHOD OF INHIBITING HEPATIC STELLATE CELL ACTIVATION, METHOD OF DEACTIVATING HEPATIC STELLATE CELL, METHOD OF TREATING HEPATIC FIBROSIS, METHOD OF TREATING NON-ALCOHOLIC STEATOHEPATITIS, AND METHOD OF TREATING PSORIASIS” (Kurume University, priority 2023, published 2026).

Data set [1] deals with mouse auricle. The experiment in a line: Imiquimod-induced psoriasis model, oral imeglimin (Example 18). Type of data set: in vivo. To be noted: 62.5 mg of 5% imiquimod cream daily, Days 1 to 7 (disease inducer). As to the method: Experimental psoriatic symptoms were induced in a mouse auricle by imiquimod. Six-week-old male C57BL/6 mice (N=5) were acclimated for one week. On Days 1 to 7, 62.5 mg of 5% imiquimod cream (Beselna Cream 5%) (3.125 mg in terms of the active ingredient, manufactured by Mochida Pharmaceutical Co. Ltd.) was applied to the right auricle of the mice for 7 consecutive days (IMQ group). Once daily after the imiquimod application, the imeglimin administration group (IMQ+IMG group) received oral administration, at 40 mg/kg, of 500-mg Twymeeg (trademark) tablets (manufactured by Sumitomo Pharma Co. Ltd.) dissolved in physiological saline. The control group received an equal volume of physiological saline. On Day 8, the mice were euthanized by cervical dislocation, and auricle thickness was measured using a dial thickness gauge (manufactured by Adachi Sogyo Co., Ltd.).
Each excised mouse auricle was fixed in 4% paraformaldehyde at 4° C. overnight. After ethanol substitution, the auricle was embedded in paraffin, sectioned using a rotary microtome Leica RM2165 (thickness, […]), and subjected to HE staining or immunohistochemical staining. For the immunohistochemical staining, the sections were deparaffinized, washed in xylene, and rehydrated through graded alcohols. The sections were incubated in DAKO at 95° C. for 30 minutes. The sections were blocked at room temperature for 60 minutes and then incubated at room temperature for 2 hours to allow reaction with a TGM1 anti-rabbit polyclonal antibody (catalog number 12912-3-AP, manufactured by Proteintech). The sample was washed and then allowed to react with a secondary antibody (Alexa 544-conjugated secondary antibody (goat anti-rabbit IgG) (manufactured by Molecular Probes)) at room temperature for 60 minutes. After allowing reaction with DAPI at room temperature for 10 minutes, the sections were mounted with Fluoromount and imaged using a fluorescence microscope (BZ-X710, manufactured by Keyence).

The test system of the next data set is keratinocytes. Put plainly: Imiquimod-induced ATP secretion in keratinocytes. To be noted: imiquimod 1 μg/ml or 0.5 μg/ml, 15 minutes, N=8 (FIG. 32). Type of data set: cell-based, human. How it is done:
In the same manner as in Example 1, keratinocytes were cultured at 2.5×10^4 cells/well in a 24-well plate at 37° C. in 5% CO2 for 4 days. The medium was replaced with HBSS (manufactured by Gibco) supplemented with 1 μM or 10 μM imeglimin, and incubation was performed at 37° C. in 5% CO2 for 18 hours. Thereafter, imiquimod was added thereto at 1 μg/ml or 0.5 μg/ml, and incubation was performed for 15 minutes, followed by collection of 200 μl of the supernatant. The supernatant was immediately treated on a heat block at 95° C. for 10 minutes, and ATP in the supernatant was quantified using a ATP Assay Kit—Luminescence (manufactured by Dojindo) (N=8).

The test system of data set [2] is mouse auricle. Put plainly: Imiquimod-induced psoriasis relapse model (Example 20). The following applies: 5% imiquimod cream resumed on Day 23, vs first induction. Type of data set: in vivo. How it is done: To the left auricle of each mouse, 62.5 mg of 5% imiquimod cream (Beselna Cream 5%) was applied once daily a total of seven times (Days 1 to 7) in accordance with Example 19 to induce imiquimod-induced psoriasis. Thereafter, the imiquimod treatment was interrupted, and imeglimin (40 mg/kg) was orally administered on alternate days for 2 weeks (Day 8 to 22) (IMG). Mice without administration of imeglimin were designated IMQ. On Day 23, the imiquimod treatment was resumed, and 62.5 mg of 5% imiquimod cream (Beselna Cream 5%) was applied once daily a total of […]. In parallel, imeglimin (40 mg/kg) was orally administered daily to IMG.

Data set [3] has as its system catecholamine transport of chromaffin granule membranes. The experiment in a line: Catecholamine (dopamine) transport in chromaffin granule membranes. Type of data set: biochemical, cattle. The following applies: role: inhibitor; 1 μM reserpine. How it is done: (§1) Chromaffin granule membranes were prepared from adrenal glands collected from slaughtered cattle according to Reference A (Nathan Nelson et al., 1988, Chromaffin Granule Proton Pump, Methods in Enzymology, 157, 619-633). Chromaffin granule membranes prepared by sucrose density gradient centrifugation were suspended in 2 ml of SME buffer (20 mM MOPS-tris (pH 7.0), 0.3 M sucrose, 5 mM EDTA, 10 μg/ml leupeptin, and 10 μg/ml pepstatin)+25% glycerol, and the resulting suspension was aliquoted and stored at −80° C. Under these conditions, the ATP transport activity, the V-ATPase activity, and the catecholamine transport activity remain fully active for at least one year.
A catecholamine transport inhibition experiment was carried out in the same manner as the ATP transport experiment except that the experiment used a measurement liquid containing 20 mM MOPS-tris (pH 7.0), 0.1 M sucrose, 0.1 M potassium chloride, 5 mM magnesium acetate, and about 5 μg of chromaffin granule membranes. To 0.5 ml of the measurement liquid, 2 mM ATP was added, and the resulting mixture was incubated at 30° C. for about 5 minutes, followed by addition of 3[H]-dopamine thereto to a final concentration of 10 μM. After further incubation at 30° C. for 15 minutes, 0.2 ml of the reaction liquid was subjected to suction filtration through a Millipore MCE membrane filter with a pore size of 0.45 μm, and the radioactivity on the filter was measured (N=3). The substrate, 3[H]-dopamine, was prepared by mixing 3,4-[RING-2,5,6-^3H]dihydroxyphenylethylamine (dopamine) (30 Ci/mmol) (manufactured by New England Nuclear) with dopamine hydrochloride (manufactured by LKT Laboratories) such that a final concentration of […] was achieved during the use.
(§2) Chromaffin granule membrane vesicles were prepared in the same manner as in Example 5, and uptake of radiolabeled ATP into the vesicles was measured. Transport activity of catecholamine (dopamine) and ATP-dependent proton transport by V-ATPase were also measured in the same manner as in Example 5.

For data set [4], the target named is T1, V-ATPase (Bos taurus, UniProt P31404+P31408).
T1 construct: Chromaffin granule membranes were prepared from adrenal glands collected from slaughtered cattle; from tissue; host or cells: cattle adrenal glands, chromaffin granule membranes (sucrose density gradient)
T1 sequence (P31404 whole entry, looked up): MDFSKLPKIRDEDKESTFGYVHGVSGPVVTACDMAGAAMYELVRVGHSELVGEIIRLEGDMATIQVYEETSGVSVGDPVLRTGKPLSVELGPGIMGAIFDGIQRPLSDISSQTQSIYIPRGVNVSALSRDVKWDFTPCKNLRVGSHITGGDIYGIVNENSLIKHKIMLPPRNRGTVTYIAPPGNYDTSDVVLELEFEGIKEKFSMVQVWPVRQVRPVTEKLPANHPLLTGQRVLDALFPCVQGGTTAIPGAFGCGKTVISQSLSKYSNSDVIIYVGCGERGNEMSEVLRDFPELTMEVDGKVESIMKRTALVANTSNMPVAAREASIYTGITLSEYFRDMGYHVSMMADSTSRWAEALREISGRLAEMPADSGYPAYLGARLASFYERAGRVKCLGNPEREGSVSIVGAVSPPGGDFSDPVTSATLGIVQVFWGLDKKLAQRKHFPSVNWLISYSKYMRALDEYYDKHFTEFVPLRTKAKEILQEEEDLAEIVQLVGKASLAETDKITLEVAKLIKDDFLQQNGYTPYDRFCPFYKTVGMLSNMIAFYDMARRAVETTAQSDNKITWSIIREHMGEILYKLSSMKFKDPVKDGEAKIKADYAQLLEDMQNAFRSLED
T1 sequence (P31408 whole entry, looked up): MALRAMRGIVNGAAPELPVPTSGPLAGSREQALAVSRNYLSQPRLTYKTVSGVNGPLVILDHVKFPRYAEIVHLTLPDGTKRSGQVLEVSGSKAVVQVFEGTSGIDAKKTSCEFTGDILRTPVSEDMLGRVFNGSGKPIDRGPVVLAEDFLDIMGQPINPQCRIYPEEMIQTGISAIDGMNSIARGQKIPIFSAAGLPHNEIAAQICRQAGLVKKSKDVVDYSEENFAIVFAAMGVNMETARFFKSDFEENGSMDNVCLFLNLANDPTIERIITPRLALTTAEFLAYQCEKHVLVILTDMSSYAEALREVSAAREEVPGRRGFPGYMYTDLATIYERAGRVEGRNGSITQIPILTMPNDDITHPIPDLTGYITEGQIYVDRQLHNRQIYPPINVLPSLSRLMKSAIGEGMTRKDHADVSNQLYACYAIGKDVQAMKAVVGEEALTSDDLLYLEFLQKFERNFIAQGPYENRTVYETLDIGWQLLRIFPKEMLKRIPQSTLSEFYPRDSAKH
The experiment in a line: ATP-dependent proton transport by V-ATPase (acridine orange fluorescence quenching). The format is biochemical, cattle. The following applies: role: substrate; addition of ATP, relative to before addition, N=2. How it is done:
as §1
ATP-dependent proton transport by V-ATPase was measured according to Reference B. Proton transport activity was measured using a spectrofluorometer at excitation wavelength of 492 nm and a fluorescence wavelength 540 nm, wherein fluorescence quenching of acridine orange was used as an index (N=2). The transmembrane potential generated was measured using a spectrofluorometer at an excitation wavelength of 580 nm and a fluorescence wavelength of 630 nm, wherein fluorescence quenching of oxonol-V was used as an index (N=2). The acridine measurement liquid (2 ml) contained 20 mM MOPS-tris (pH 7.0), 0.2 M sucrose, 0.1 M potassium chloride, 5 mM magnesium acetate, 0.2 μg valinomycin, 2 μM acridine orange, and about 20 μg of chromaffin granules. The oxonol-V measurement liquid (2 ml) contained 20 mM MOPS-tris (pH 7.0), 0.3 M sucrose, 5 mM magnesium acetate, 5 μM oxonol-V, and about 20 μg of chromaffin granules.
as §2

In data set [5] the target is T1, V-ATPase. The experiment in a line: Transmembrane potential generated (oxonol-V fluorescence quenching) in chromaffin granules. The format is biochemical, cattle. The following applies: role: substrate; addition of ATP, relative to before addition, N=2. As to the method: as §1
ATP-dependent proton transport by V-ATPase was measured according to Reference B. Proton transport activity was measured using a spectrofluorometer at excitation wavelength of 492 nm and a fluorescence wavelength 540 nm, wherein fluorescence quenching of acridine orange was used as an index (N=2). The transmembrane potential generated was measured using a spectrofluorometer at an excitation wavelength of 580 nm and a fluorescence wavelength of 630 nm, wherein fluorescence quenching of oxonol-V was used as an index (N=2). […]

For data set [6], the system named is α-SMA-positive cells (stellate cells) in mouse liver. Put plainly: TAA-induced activation of HSCs in mice: α-SMA immunostaining of liver sections. Type of data set: in vivo. The text has this: (§3) For immunohistochemical analysis, liver samples were fixed in 4% paraformaldehyde, embedded in paraffin, and then sectioned. The sections were stained with HE or PSR. In addition, the paraffin-embedded sections were subjected to immunostaining using an α-SMA monoclonal antibody (1:500, catalog No. A5228, manufactured by Sigma-Aldrich) and an F4/80 monoclonal antibody (1:200, catalog No. MCA497GA, manufactured by AbD Serotec). The cell specimens were observed using a microscope (BZ-X700 series, manufactured by Keyence) or a confocal laser microscope (FV1000, manufactured by Olympus Corporation). The number of F4/80-positive cells was counted in four high-power fields per section. The α-SMA-positive area and the PSR-positive area were quantified using the image analysis software Fiji-ImageJ (1.54f).
In accordance with Example 15, immunostaining of α-SMA in liver sections and observation by fluorescence microscopy were performed for the normal control group, the TAA group, and the TAA+IMG group, and for a TAA+Clo group, which was treated in the same manner as the TAA+IMG group except that clodronate, instead of imeglimin, was administered at 30 mg/kg by blending it in the drinking water from 1 week after the start of TAA administration.

Another data set has as its system mouse liver. The experiment in a line: Thioacetamide-induced hepatic fibrosis in mice: histology, immunostaining and fibrosis score. Type of data set: in vivo. To be noted: TAA 50 mg/kg i.p. three times per week. As to the method:
Wild-type mice, […] (manufactured by Charles River Japan), were housed on a 12-hour light/dark cycle and fed a standard solid diet (5.4% fat, CRF-1, manufactured by Oriental Yeast Co., Ltd.) ad libitum. Thioacetamide (TAA, manufactured by FUJIFILM Wako Pure Chemical Corporation) was dissolved in physiological saline at 0.9% w/v. Eight-week-old mice were randomly assigned to three groups and continuously treated for 9 weeks according to the following scheme. At Week 9, all mice were euthanized 1 hour after administration of physiological saline or IMG.
Normal control group (N=6): Physiological saline was intraperitoneally administered to mice three times per week. Eight hours after each administration, a vehicle was orally administered to the mice.
TAA group (N=6): TAA (50 mg/kg, intraperitoneal) was administered to mice. Eight hours thereafter, physiological saline was orally administered to the mice. This treatment was performed three times per week for a total of 9 weeks.
TAA+IMG group (N=6): During the first week, physiological saline was orally administered to mice. Thereafter, imeglimin (IMG) at 200 mg/kg was orally administered three times per week for 8 weeks. The administration of IMG was performed 8 hours after intraperitoneal administration of TAA (50 mg/kg).
as §3
A histological score was determined by a blinded investigator using the NAFLD histological scoring system of the Nonalcoholic Steatohepatitis Clinical Research Network. The total NAFLD activity score (NAS) was calculated from the total of the individual scores for steatosis ([…]), lobular inflammation (F4/80), and hepatocyte ballooning. The range of each parameter was 0 to 2 (ballooning) or 3 (the other two scores), where 0 indicates normal and 2 or 3 indicates severe. Staging of fibrosis was based on the NASH fibrosis stages, and a fibrosis stage ranging from 0 to 4 was determined according to Reference H (David E. Kleiner et al., 2005, Design and validation of a histological scoring system for nonalcoholic fatty liver disease, Hepatology, 41, 1313-1321).
All results are expressed as the mean±standard error of the mean (S.E.M.). Statistical analyses were performed using GraphPad Prism 7.0 (GraphPad Software). Significance upon comparison between two groups was evaluated by an unpaired two-tailed Student's t-test. […]. Statistical significance among three or more groups was determined by two-way analysis of variance (ANOVA) with Tukey's or Dunnett's post hoc test. Coloc2 was used to perform image analysis, automatic thresholding, and pixel intensity correlation for statistical processing. Statistical significance was assumed when the P value was <0.05.

As for `CC(C)Cn1cnc2c(N)nc3ccccc3c21` [imiquimod], in the data set on mouse auricle [1], the auricle thickening result is on record as “auricle thickening induced” and the “psoriatic symptoms in the epidermis” value is “caused psoriatic symptoms in the epidermis, leading to partial desquamation”. In the data set on keratinocytes, the “ATP secretion from the keratinocytes” value is “markedly promoted”. In the data set on mouse auricle [2], the “psoriatic symptoms on resumed treatment” value was “induced more rapidly and more strongly than at the first induction”.
Regarding `COC(=O)[C@H]1[C@H]2C[C@@H]3c4[nH]c5cc(OC)ccc5c4CCN3C[C@H]2C[C@@H](OC(=O)c2cc(OC)c(OC)c(OC)c2)[C@@H]1OC` [reserpine], in data set [3], the ATP-dependent dopamine transport entry was “almost completely blocked”.
For the molecule `Nc1ncnc2c1ncn2[C@@H]1O[C@H](COP(=O)(O)OP(=O)(O)OP(=O)(O)O)[C@@H](O)[C@H]1O` [ATP, adenosine triphosphate], the “quenching of acridine orange fluorescence” value on V-ATPase [4] is recorded as 62%. At V-ATPase [5], the “quenching of oxonol-V fluorescence” value turned out to be 40%.
Consider `CC(=N)S` [TAA, Thioacetamide], for which the “α-SMA-positive reaction throughout the mouse liver” value in data set [6] (TAA 50 mg/kg i.p. (FIG. 29)) is “increased markedly”. The same molecule displayed a α-SMA-positive area fraction in data set [6] (TAA group (disease inducer, 50 mg/kg i.p.), four measurements, normal control 0.14±0.01) of 2.79±0.33. Moreover, in the data set with mouse liver (9 weeks (disease inducer)), the “reaction of F4/80-positive macrophages” value is given as “markedly increased” and the α-SMA-positive reaction result is reported as “markedly increased”. For the same molecule, in the data set with mouse liver (9 weeks, vs normal control), the HE-stained liver tissue entry was “destruction of the lobular structure, hepatocyte ballooning, and inflammatory cell infiltration”. In addition, the fibrosis score result with mouse liver (9 weeks, vs normal control (FIG. 28)) was “markedly increased”.
